In brackets after ≈: the same amount, converted by molar mass.
Experiments:
Format in all cases: cell-based
[1] = test system: S. aureus SR3637 (H-MRSA); experiment: MIC by agar dilution method, S. aureus SR3637 (H-MRSA); settings: Methicillin High-Resistant Staphylococcus Aureus; for MIC: MRSA, read-out: MIC (minimum inhibitory concentration) S. aureus SR3637 (H-MRSA)
Experimental: (§1) The MIC (minimum inhibitory concentration) value of the invention compounds against various bacterial was determined by the usual agar dilution method.

[2] = test system: S. epidermidis SR25009 (MRSE); experiment: MIC by agar dilution method, S. epidermidis SR25009 (MRSE); settings: Methicillin High-Resistant Staphylococcus Epidermidis; for MIC: MRSE, read-out: MIC (minimum inhibitory concentration) S. epidermidis SR25009 (MRSE)
Experimental: as §1

P. aeruginosa SR24-12 = experiment: MIC by agar dilution method, P. aeruginosa SR24-12; settings: for MIC: Pseudomonas aeruginosa, SR2412, AmpC High-Production Cephem Resistant Strain, read-out: MIC (minimum inhibitory concentration) P. aeruginosa SR24-12
Experimental: as §1

[3] = test system: E. cloacae SR4321 (Bla++); experiment: MIC by agar dilution method, E. cloacae SR4321 (Bla++); settings: AmpC High-Production Cephem Resistant Strain; for MIC: Enterobacter cloacae, read-out: MIC (minimum inhibitory concentration) E. cloacae SR4321 (Bla++)
Experimental: as §1

| SMILES | MIC [1] | MIC [2] | MIC (P. aeruginosa SR24-12) | MIC [3] | MIC (minimum inhibitory concentration) S. aureus SR3637 (H-MRSA) [1] | MIC (minimum inhibitory concentration) S. epidermidis SR25009 (MRSE) [2] | MIC (minimum inhibitory concentration) P. aeruginosa SR24-12 (P. aeruginosa SR24-12; AmpC High-Production Cephem Resistant Strain) | MIC (minimum inhibitory concentration) E. cloacae SR4321 (Bla++) [3] |
| --- | --- | --- | --- | --- | --- | --- | --- | --- |
| CC(C)(O/N=C(\C(=O)NC1C(=O)N2C(C(=O)[O-])=C(C[n+]3ccccc3)CSC12)c1nc(N)sc1Cl)C(=O)O (stereo not drawn) [Ex. 3] | 32 µg/mL (≈ 55.1 µM) | 32 µg/mL (≈ 55.1 µM) | 8 µg/mL (≈ 13.8 µM) | 16 µg/mL (≈ 27.5 µM) | – | – | – | – |
| CNCCCn1ccc2c1ccc[n+]2CC1=C(C(=O)[O-])N2C(=O)C(NC(=O)/C(=N\O[C@H](C)C(=O)O)c3nc(N)sc3Cl)C2SC1 (stereo partly drawn) [Ex. 8] | 32 µg/mL (≈ 47.3 µM) | 32 µg/mL (≈ 47.3 µM) | 4 µg/mL (≈ 5.91 µM) | 4 µg/mL (≈ 5.91 µM) | – | – | – | – |
| C=C(O/N=C(\C(=O)NC1C(=O)N2C(C(=O)[O-])=C(C[n+]3cccc4c3ccn4CCCNC)CSC12)c1nc(N)sc1Cl)C(=O)O (stereo not drawn) [Ex. 19] | 16 µg/mL (≈ 23.7 µM) | 8 µg/mL (≈ 11.8 µM) | 8 µg/mL (≈ 11.8 µM) | 1 µg/mL (≈ 1.48 µM) | – | – | – | – |
| CNCCCn1ccc2c1ccc[n+]2CC1=C(C(=O)[O-])N2C(=O)C(NC(=O)/C(=N\OC(C)(C)C(=O)O)c3nc(N)sc3Br)C2SC1 (stereo not drawn) [Ex. 20] | 16 µg/mL (≈ 21.7 µM) | 16 µg/mL (≈ 21.7 µM) | 4 µg/mL (≈ 5.44 µM) | 8 µg/mL (≈ 10.9 µM) | – | – | – | – |
| CNCCCn1c(N)nc2c1ccc[n+]2CC1=C(C(=O)[O-])N2C(=O)[C@@H](NC(=O)/C(=N\O[C@@H](C)C(=O)O)c3nc(N)sc3Cl)C2SC1 (stereo partly drawn) [Ex. 79] | 8 µg/mL (≈ 11.5 µM) | 8 µg/mL (≈ 11.5 µM) | 4 µg/mL (≈ 5.77 µM) | 2 µg/mL (≈ 2.89 µM) | – | – | – | – |
| C[C@H](N)Cn1c(N)nc2c1ccc[n+]2CC1=C(C(=O)[O-])N2C(=O)C(NC(=O)/C(=N\O[C@@H](C)C(=O)O)c3nc(N)sc3Cl)C2SC1 (stereo partly drawn) [Ex. 98] | 8 µg/mL (≈ 11.8 µM) | 8 µg/mL (≈ 11.8 µM) | 2 µg/mL (≈ 2.94 µM) | 2 µg/mL (≈ 2.94 µM) | – | – | – | – |
| CNCCNc1cc[n+](CC2=C(C(=O)[O-])N3C(=O)[C@@H](NC(=O)/C(=N\O[C@@H](C)C(=O)O)c4nc(N)sc4Cl)[C@H]3SC2)cc1 [Ex. 124] | 16 µg/mL (≈ 25 µM) | 8 µg/mL (≈ 12.5 µM) | 4 µg/mL (≈ 6.26 µM) | 4 µg/mL (≈ 6.26 µM) | – | – | – | – |
| C[C@H](O/N=C(\C(=O)N[C@@H]1C(=O)N2C(C(=O)[O-])=C(C[n+]3ccc(NC4CCNC4)cc3)CS[C@H]12)c1nc(N)sc1Cl)C(=O)O (stereo partly drawn) [Ex. 132] | 16 µg/mL (≈ 24.6 µM) | 8 µg/mL (≈ 12.3 µM) | 4 µg/mL (≈ 6.14 µM) | 4 µg/mL (≈ 6.14 µM) | – | – | – | – |
| CC(C)(O/N=C(\C(=O)N[C@@H]1C(=O)N2C(C(=O)[O-])=C(C[n+]3ccccc3)CS[C@H]12)c1csc(N)n1)C(=O)O [Ref. 1, Ceftazidime, reference compound] | – | – | – | – | >128 µg/mL | >128 µg/mL | 64 µg/mL (≈ 117 µM) | 64 µg/mL (≈ 117 µM) |
